Columns and labels:
[1] = target: T1, Human GPR40 (Homo sapiens, UniProt O14842); assay: Inositol Phosphate Turnover (IP1) Assay 2; type: cell-based; design: expressed in transfected cells; host or cells: HEK cells stably expressing the aequorin reporter; details: HEK cells stably expressing human GPR40, 384-well, CisBio IP-One kit
Protocol: The assay was performed in 384-well format. HEK cells stably expressing human GPR40 were plated at 15,000 cells per well in growth medium (DMEM/10% fetal calf serum). Cell plates were then incubated 16 hours at 37 degrees in a 5% CO2 incubator.
Measurement of Inositol Phosphate Turnover (IP1) was performed using the CisBio IP-One kit (Part number 62IPAPEB). After the 16 hour incubation, the cells were washed with HEPES buffer and 10 ul of stimulation buffer (prepared as described in the kit) was added to each well. In a separate plate, compounds were diluted in DMSO (400-fold over the final concentration in the assay well) and 25 nl was acoustically transferred to the appropriate well in the assay cell plate. The plates were then incubated for 60 minutes at 37 degrees. 10 ul of detection buffer (also prepared as described in the IP-One kit) was added to each well and the plates were incubated for 60 minutes in the dark. The plates were then read in a Perkin Elmer EnVision or equivalent reader able to measure FRET. Fluorescent ratio of emission at 665 and 620 nm was then converted to IP1 concentration by back calculating from an IP1 standard curve prepared at the time of the assay.

[2] = target: T1, Human GPR40; assay: Inositol Phosphate Turnover (IP1) Assay 1; type: cell-based; design: expressed in transfected cells; host or cells: HEK cells stably expressing the aequorin reporter; details: HEK cells stably expressing human GPR40, 96-well, 3H-inositol labeling, SPA beads
Protocol: Human and mouse GPR40 stable cell-lines were generated in CHO cells stably expressing NFAT BLA (Beta-lactamase). A human GPR40 stable cell-line was generated in HEK cells stably expressing the aequorin expressing reporter. The expression plasmids were transfected using lipofectamine (Life Technologies) following manufacturer's instructions. Stable cell-lines were generated following drug selection.
The assay was performed in 96-well format. HEK cells stably expressing human GPR40 were plated to be 60-80% confluent within 72 h. After 72 h, the plates were aspirated and the cells washed with inositol-free DMEM (ICN). The wash media was replaced with 150 μL of 3H-inositol labeling media (inositol-free media containing 0.4% human albumin or 0.4% mouse albumin, 1× pen/strep antibiotics, glutamine, 25 mM HEPES to which was added 3H-myo-inositol NEN #NET114A 1 mCi/mL, 25 Ci/mmol diluted 1:150 in loading media with a final specific radioactivity of 1 μCi/150 μL). Alternatively, the human and mouse albumin can be added after the overnight labeling step before the addition of LiCl.
The assay was typically run the next day after 18 h labeling. On the day of the assay, 5 μL of 300 mM LiCl was added to all wells and incubated at 37 degrees for 20 min 0.75 μL of 200× compounds were added and incubated with the cells for 60 min at 37 degrees. The media was then aspirated off and the assay terminated with the addition of 60 μL 10 mM formic acid. The cells were lysed for 60 min at room temperature. 15-30 μL of lysate was mixed with 70 μL/1 mg YSi SPA beads (Amersham) in clear bottom Isoplates. The plates were shaken for 2 h at room temperature. Beads were allowed to settle and the plates were counted in the Wallac Microbeta.

T1 sequence (O14842 whole entry): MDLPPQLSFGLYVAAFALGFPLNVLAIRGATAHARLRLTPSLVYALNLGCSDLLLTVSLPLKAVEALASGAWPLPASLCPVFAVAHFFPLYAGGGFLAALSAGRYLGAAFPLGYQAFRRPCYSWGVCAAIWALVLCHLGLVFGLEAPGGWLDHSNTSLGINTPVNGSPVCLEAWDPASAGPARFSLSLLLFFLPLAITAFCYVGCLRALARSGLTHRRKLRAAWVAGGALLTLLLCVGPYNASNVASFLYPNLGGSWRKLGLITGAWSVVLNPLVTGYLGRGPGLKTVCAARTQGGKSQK

| Structure (SMILES) | EC50 [1] | EC50 [2] |
| --- | --- | --- |
| C[C@@](O)(CO)CCOc1ccc(-c2cc(COc3cc4c(cn3)[C@H]3[C@@H](C4)[C@@H]3C(=O)O)c(F)cc2F)c(Cl)c1 [Example 21, (5aR,6S,6aS)-3-((2′-chloro-4′-((S)-3,4-dihydroxy-3-methyl-butoxy)-4,6-di-fluoro-[1,1′-biphenyl]-3-yl)methoxy)-5,5a,6,6a-tetrahydrocyclopropa [4,5]cyclopenta[1,2-c] pyridine-6-carboxylic acid] | 2.2 nM |  |
| Cc1cc(OCCC(C)(O)C(F)F)nc(C)c1-c1cc(COc2cc3c(cn2)C2[C@@H](C3)[C@@H]2C(=O)O)c(F)cc1F (stereo in doubt) [Example 17, (5aR,6S,6aR)-3-((5-(6-(4,4-difluoro-3-hydroxy-3-methyl-butoxy)-2,4-di-methylpyridin-3-yl)-2,4-difluorobenzyl)oxy)-5,5a,6,6a-tetra-hydrocyclopropa[4,5] cyclopenta[1,2-c] pyridine-6-carboxylic acid] | 2.1 nM |  |
| Cc1nc(OCCC(C)(O)CO)ccc1-c1cc(COc2cc3c(cn2)[C@H]2[C@@H](C3)[C@@H]2C(=O)O)c(F)cc1C(F)(F)F (stereo partly drawn) [Example 20, (5aR,6S,6aS)-3-((5-(6-(3,4-dihydroxy-3-methyl-butoxy)-2-methylpyridin-3-yl)-2-fluoro-4-(tri-fluoro-methyl)benzyl)-oxy)-5,5a,6,6a-tetra-hydro-cyclopropa[4,5]-cyclopenta[1,2-c]-pyridine-6-carboxylic acid] | 3.1 nM |  |
| Cc1cc(OCC[C@H](O)CO)cc(C)c1-c1cc(COc2cc3c(cn2)[C@H]2[C@@H](C3)[C@@H]2C(=O)O)c(F)cc1F [Example 24, Sodium (5aR,6S,6aS)-3-((4′-((S)-3,4-dihydroxybutoxy)-4,6-difluoro-2′,6′-dimethyl-[1,1′-biphenyl]-3-yl)methoxy)-5,5a,6,6a-tetrahydrocyclopropa[4,5]cyclopenta[1,2-c]pyridine-6-carboxylate] | 1.3 nM | 4.6 nM |
| Cc1cc(OCC[C@@H](O)CO)c(F)cc1-c1cc(COc2cc3c(cn2)[C@H]2[C@@H](C3)[C@@H]2C(=O)O)c(F)cc1Cl [Example 26, (5aR,6S,6aS)-3-((6-chloro-4′-((R)-3,4-dihydroxybutoxy)-4,5,-difluoro-2′-methyl-[1,1′-biphenyl]-3-yl)methoxy)-5,5a,6,6a-tetrahydrocyclo-propa[4,5]cyclopenta [1,2-c]pyridine-6-carboxylic acid] | 0.7 nM |  |
| Cc1cc(CCC(C)(O)CO)cc(C)c1-c1cc(COc2cc3c(cn2)[C@H]2[C@@H](C3)[C@@H]2C(=O)O)c(F)cc1F (stereo partly drawn) [Example 23, (5aR,6S,6aS)-3-((4′-(3,4-dihydroxy-3-methylbutyl)-4,6-difluoro-2′,6′-dimethyl-[1,1′-biphenyl]-3-yl)methoxy)-5,5a,6,6a-tetrahydrocyclopropa[4,5]cyclopenta[1,2-c]pyridine-6-carboxylic acid] | 5.2 nM |  |
| Cc1cc(OCC(C(C)(C)O)C(C)(C)O)cc(C)c1-c1cc(COc2cc3c(cn2)[C@H]2[C@@H](C3)[C@@H]2C(=O)O)c(F)cc1F [Example 22, (5aR,6S,6aS)-3-((4,6-difluoro-4′-(3-hydroxy-2-(2-hydroxypropan-2-yl)-3-methylbutoxy)-2′,6′-dimethyl-[1,1′-biphenyl]-3-yl)methoxy)-5,5a,6,6a-tetrahydrocyclopropa[4,5]cyclopenta[1,2-c]pyridine-6-carboxylic acid] | 3.1 nM |  |
| Cc1cc(OCC[C@@H](O)CO)cc(C)c1-c1cc(COc2cc3c(cn2)[C@H]2[C@@H](C3)[C@@H]2C(=O)O)c(F)cc1F [Example 25, (5aR,6S,6aS)-3-((4′-((R)-3,4-dihydroxy-butoxy)-4,6-difluoro-2′,6′-dimethyl-[1,1′-biphenyl]-3-yl)methoxy)-5,5a,6,6a-tetrahydrocyclo-propa[4,5]cyclopenta [1,2-c]pyridine-6-carboxylic acid] | 3.8 nM | 4.7 nM |
| Cc1cc(OCCC(C)(O)CO)cc(C)c1-c1cc(COc2cc3c(cn2)[C@H]2[C@@H](C3)[C@@H]2C(=O)O)c(F)cc1F (stereo partly drawn) [Example 19, (5aR,6S,6aS)-3-((4′-(3,4-dihydroxy-3-methyl-butoxy)-4,6-difluoro-2′,6′-dimethyl-[1,1′-biphenyl]-3-yl)methoxy)-5,5a,6,6a-tetrahydro-cyclopropa[4,5]-cyclopenta[1,2-c] pyridine-6-carboxylic acid] | 1.6 nM |  |
